From paper PMC13210772, “Dual FLT3/MAPK14 Proteolysis-Targeting Chimera (PROTAC) Induces Potent Acute Myeloid Leukemia Cell Death” (Pharmaceuticals, 2026) come the findings set out here.

What all share (assay): NanoBRET CELLinib128
Format in all cases: binding
A general note: Bioluminescence resonance energy transfer reports proximity on the nanometre scale.

For one test, the target named is T1, AURKB (Homo sapiens, UniProt Q96GD4).
T1 construct: Full-length kinase ORF (Promega, Madison, WI, USA) cloned in frame with a NanoLuc-vector was transfected into HEK293T cells; host or cells: HEK293T
To be noted: 100% no effect, 0% complete tracer displacement, read-out: Tracer bound. Here is the method:
(§1) To get an impression about the binding strength of the PROTAC MA191 and the reference inhibitor MA68 to other kinases besides FLT3-ITD the binding on a kinase panel of further 128 representative protein kinases at 1 μM concentration was tested using the NanoBRET^TM cellular target engagement assay (CELLinib128 assay, CELLinib GmbH, Frankfurt, Germany). […] In none of the 128 kinases MA191 was able to displace the tracer (inhibitor) used by more than 50%, Table S1, Supplementary Information).
(§2) The CELLinib128 assay was performed by CELLinib GmbH, Frankfurt (Germany) as described previously. In brief: Full-length kinase ORF (Promega, Madison, WI, USA) cloned in frame with a NanoLuc-vector was transfected into HEK293T cells in Opti-MEM without phenol red (Life Technologies, Carlsbad, CA, USA) at a density of 2 × 10^5 cells/mL using FuGENE HD (Promega, E2312) and proteins were allowed to express for 20 h. For CDKs, where indicated below, an excess of an activator without an NLuc-fusion was cotransfected. […] The system was allowed to equilibrate at 37 °C for 2 h and 5% CO2 prior to BRET measurements. For PKCs, a chemical activator PMA was added in a final concentration of 1 µM was added together with test compounds and tracers (Promega, V1171). To measure BRET, NanoBRET^TM NanoGlo substrate + extracellular NanoLuc inhibitor (Promega, N2160) were added as per the manufacturer’s protocol, and filtered luminescence was measured (450 nm BP filter (donor) and 610 nm LP filter (acceptor)). For the 1-shot test compounds, data were normalized to the tracer control and the background control or control compound plateau and an average and SD were calculated. […] For the control compounds competitive displacement data were normalized to the tracer Ctrl and the background Ctrl and then plotted and fitted using GraphPad Prism 10 software using a normalized 3-parameter curve fit with the following equation: Y = 100/(1 + 10^X−LogIC50).

The next test has as its target T2, AURKC (Homo sapiens, UniProt Q9UQB9).
T2 construct: Full-length kinase ORF (Promega, Madison, WI, USA) cloned in frame with a NanoLuc-vector was transfected into HEK293T cells; host or cells: HEK293T
To be noted: 100% no effect, 0% complete tracer displacement, read-out: Tracer bound. As for the experimental part: as §1, §2

The target of another test is T3, CAMK2A (Homo sapiens, UniProt Q9UQM7).
T3 construct: Full-length kinase ORF (Promega, Madison, WI, USA) cloned in frame with a NanoLuc-vector was transfected into HEK293T cells; host or cells: HEK293T
To be noted: 100% no effect, 0% complete tracer displacement, read-out: Tracer bound. As for the experimental part: as §1, §2

The target in a further test is T4, CDK17-CCNY (Homo sapiens, UniProt Q00537).
T4 construct: Full-length kinase ORF (Promega, Madison, WI, USA) cloned in frame with a NanoLuc-vector was transfected into HEK293T cells; host or cells: HEK293T
To be noted: 100% no effect, 0% complete tracer displacement, read-out: Tracer bound. As for the experimental part: as §1, §2

The next test deals with T5, CDK5-CDK5R2 (Homo sapiens, UniProt Q00535).
T5 construct: Full-length kinase ORF (Promega, Madison, WI, USA) cloned in frame with a NanoLuc-vector was transfected into HEK293T cells; host or cells: HEK293T
To be noted: 100% no effect, 0% complete tracer displacement, read-out: Tracer bound. As for the experimental part:
as §1, §2

Another test addresses T6, CSNK1G2 (Homo sapiens, UniProt P78368).
T6 construct: Full-length kinase ORF (Promega, Madison, WI, USA) cloned in frame with a NanoLuc-vector was transfected into HEK293T cells; host or cells: HEK293T
To be noted: 1 µM; 100% no effect, 0% complete tracer displacement. Here is the method: as §1, §2

The target of the next test is T7, CSNK2A2 (Homo sapiens, UniProt P19784).
T7 construct: Full-length kinase ORF (Promega, Madison, WI, USA) cloned in frame with a NanoLuc-vector was transfected into HEK293T cells; host or cells: HEK293T
To be noted: 100% no effect, 0% complete tracer displacement, read-out: Tracer bound. Here is the method:
as §1, §2

Another test addresses T8, DCLK3 (Homo sapiens, UniProt Q9C098).
T8 construct: Full-length kinase ORF (Promega, Madison, WI, USA) cloned in frame with a NanoLuc-vector was transfected into HEK293T cells; host or cells: HEK293T
To be noted: 100% no effect, 0% complete tracer displacement, read-out: Tracer bound. As for the experimental part: as §1, §2

The target in a further test is T9, ERN2 (Homo sapiens, UniProt Q76MJ5).
T9 construct: Full-length kinase ORF (Promega, Madison, WI, USA) cloned in frame with a NanoLuc-vector was transfected into HEK293T cells; host or cells: HEK293T
To be noted: 100% no effect, 0% complete tracer displacement, read-out: Tracer bound. As for the experimental part: as §1, §2

For another test, the target named is T10, FGFR1 (Homo sapiens, UniProt P11362).
T10 construct: Full-length kinase ORF (Promega, Madison, WI, USA) cloned in frame with a NanoLuc-vector was transfected into HEK293T cells; host or cells: HEK293T
To be noted: 100% no effect, 0% complete tracer displacement, read-out: Tracer bound. Here is the method:
as §1, §2

For the next test, the target named is T11, MAP3K9 (Homo sapiens, UniProt P80192).
T11 construct: Full-length kinase ORF (Promega, Madison, WI, USA) cloned in frame with a NanoLuc-vector was transfected into HEK293T cells; host or cells: HEK293T
To be noted: 100% no effect, 0% complete tracer displacement, read-out: Tracer bound. As for the experimental part:
as §1, §2

Another test has as its target T12, MAP4K1 (Homo sapiens, UniProt Q92918).
T12 construct: Full-length kinase ORF (Promega, Madison, WI, USA) cloned in frame with a NanoLuc-vector was transfected into HEK293T cells; host or cells: HEK293T
To be noted: 100% no effect, 0% complete tracer displacement, read-out: Tracer bound. As for the experimental part:
as §1, §2

The target of a further test is T13, MAPK6 (Homo sapiens, UniProt Q16659).
T13 construct: Full-length kinase ORF (Promega, Madison, WI, USA) cloned in frame with a NanoLuc-vector was transfected into HEK293T cells; host or cells: HEK293T
To be noted: 100% no effect, 0% complete tracer displacement, read-out: Tracer bound. As for the experimental part:
as §1, §2

For the next test, the target named is T14, MLTK (Homo sapiens, UniProt Q9NYL2).
T14 construct: Full-length kinase ORF (Promega, Madison, WI, USA) cloned in frame with a NanoLuc-vector was transfected into HEK293T cells; host or cells: HEK293T
To be noted: 100% no effect, 0% complete tracer displacement, read-out: Tracer bound. Here is the method:
as §1, §2

A further test concerns the target T15, MUSK (Homo sapiens, UniProt O15146).
T15 construct: Full-length kinase ORF (Promega, Madison, WI, USA) cloned in frame with a NanoLuc-vector was transfected into HEK293T cells; host or cells: HEK293T
To be noted: 100% no effect, 0% complete tracer displacement, read-out: Tracer bound. Here is the method: as §1, §2

T1 sequence (Q96GD4 whole entry): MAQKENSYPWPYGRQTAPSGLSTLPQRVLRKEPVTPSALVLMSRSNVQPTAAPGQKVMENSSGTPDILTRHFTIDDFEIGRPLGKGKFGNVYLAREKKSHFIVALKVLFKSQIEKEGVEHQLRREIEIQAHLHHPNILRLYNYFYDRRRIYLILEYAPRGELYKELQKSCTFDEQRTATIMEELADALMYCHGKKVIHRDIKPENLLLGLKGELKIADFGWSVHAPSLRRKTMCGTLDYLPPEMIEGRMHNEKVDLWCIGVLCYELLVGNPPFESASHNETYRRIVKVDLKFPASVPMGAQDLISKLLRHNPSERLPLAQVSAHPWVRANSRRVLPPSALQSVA
T4 sequence (Q00537 whole entry): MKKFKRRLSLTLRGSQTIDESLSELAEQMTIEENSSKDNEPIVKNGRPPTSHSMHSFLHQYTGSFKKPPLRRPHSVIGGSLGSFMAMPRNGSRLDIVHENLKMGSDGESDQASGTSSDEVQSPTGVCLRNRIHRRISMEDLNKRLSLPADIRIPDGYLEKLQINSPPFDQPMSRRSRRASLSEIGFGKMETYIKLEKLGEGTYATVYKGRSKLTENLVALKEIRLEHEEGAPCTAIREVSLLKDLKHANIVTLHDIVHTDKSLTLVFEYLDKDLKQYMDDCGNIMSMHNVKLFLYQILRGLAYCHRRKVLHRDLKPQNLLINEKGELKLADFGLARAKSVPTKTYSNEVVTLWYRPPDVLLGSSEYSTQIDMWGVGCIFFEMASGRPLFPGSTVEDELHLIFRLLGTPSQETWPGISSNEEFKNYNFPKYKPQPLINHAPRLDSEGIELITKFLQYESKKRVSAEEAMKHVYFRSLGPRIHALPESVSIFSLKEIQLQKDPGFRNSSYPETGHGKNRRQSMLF
T4 sequence (Q8ND76 whole entry partner): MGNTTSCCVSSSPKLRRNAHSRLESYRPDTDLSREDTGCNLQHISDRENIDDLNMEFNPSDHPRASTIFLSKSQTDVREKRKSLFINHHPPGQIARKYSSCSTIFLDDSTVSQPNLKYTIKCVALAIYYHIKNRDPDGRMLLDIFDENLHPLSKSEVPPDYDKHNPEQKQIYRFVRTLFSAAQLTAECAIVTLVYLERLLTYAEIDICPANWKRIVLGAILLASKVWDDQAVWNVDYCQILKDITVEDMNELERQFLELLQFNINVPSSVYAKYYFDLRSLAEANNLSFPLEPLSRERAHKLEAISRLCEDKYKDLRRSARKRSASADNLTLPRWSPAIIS
T6 sequence (P78368 whole entry): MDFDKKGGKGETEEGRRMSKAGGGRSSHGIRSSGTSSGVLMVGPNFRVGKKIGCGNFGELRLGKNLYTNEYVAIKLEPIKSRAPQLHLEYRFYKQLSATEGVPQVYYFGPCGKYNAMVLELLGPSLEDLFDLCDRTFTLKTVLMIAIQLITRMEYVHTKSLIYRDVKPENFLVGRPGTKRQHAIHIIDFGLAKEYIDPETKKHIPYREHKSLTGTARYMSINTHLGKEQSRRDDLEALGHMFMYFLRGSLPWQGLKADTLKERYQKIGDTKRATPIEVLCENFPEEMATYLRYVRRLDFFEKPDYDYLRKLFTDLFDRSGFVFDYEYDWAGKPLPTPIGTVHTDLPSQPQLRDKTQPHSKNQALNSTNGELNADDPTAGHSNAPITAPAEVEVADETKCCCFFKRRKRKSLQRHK
T8 sequence (Q9C098 whole entry): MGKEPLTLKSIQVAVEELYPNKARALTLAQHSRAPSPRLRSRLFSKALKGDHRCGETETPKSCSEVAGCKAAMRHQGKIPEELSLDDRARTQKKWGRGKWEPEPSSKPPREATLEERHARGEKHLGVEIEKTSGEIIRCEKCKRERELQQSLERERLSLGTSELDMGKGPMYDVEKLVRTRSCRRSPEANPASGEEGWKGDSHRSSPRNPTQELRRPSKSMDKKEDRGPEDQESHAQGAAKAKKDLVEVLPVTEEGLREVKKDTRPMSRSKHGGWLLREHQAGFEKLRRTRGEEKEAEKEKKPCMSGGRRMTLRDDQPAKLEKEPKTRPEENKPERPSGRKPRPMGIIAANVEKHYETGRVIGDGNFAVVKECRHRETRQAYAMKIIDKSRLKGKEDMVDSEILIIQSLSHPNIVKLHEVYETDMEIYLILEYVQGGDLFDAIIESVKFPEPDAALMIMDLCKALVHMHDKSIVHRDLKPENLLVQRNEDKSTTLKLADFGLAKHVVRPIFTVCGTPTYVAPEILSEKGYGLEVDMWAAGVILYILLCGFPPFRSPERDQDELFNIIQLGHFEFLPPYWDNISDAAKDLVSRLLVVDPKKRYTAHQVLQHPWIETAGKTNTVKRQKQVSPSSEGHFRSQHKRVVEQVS
T3 sequence (Q9UQM7 whole entry): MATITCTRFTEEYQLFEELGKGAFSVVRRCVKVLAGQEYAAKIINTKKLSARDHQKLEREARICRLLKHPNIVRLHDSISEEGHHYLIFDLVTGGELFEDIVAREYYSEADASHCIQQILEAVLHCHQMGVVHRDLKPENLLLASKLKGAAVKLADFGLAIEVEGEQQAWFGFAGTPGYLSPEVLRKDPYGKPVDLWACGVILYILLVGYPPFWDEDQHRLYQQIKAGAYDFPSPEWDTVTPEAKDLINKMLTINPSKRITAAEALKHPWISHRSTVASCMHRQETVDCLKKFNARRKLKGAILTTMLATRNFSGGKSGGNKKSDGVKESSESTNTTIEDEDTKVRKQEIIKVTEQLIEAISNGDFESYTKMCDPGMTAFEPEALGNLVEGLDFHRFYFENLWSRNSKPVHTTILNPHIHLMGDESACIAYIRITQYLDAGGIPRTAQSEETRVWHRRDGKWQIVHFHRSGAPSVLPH
T10 sequence (P11362 22-822): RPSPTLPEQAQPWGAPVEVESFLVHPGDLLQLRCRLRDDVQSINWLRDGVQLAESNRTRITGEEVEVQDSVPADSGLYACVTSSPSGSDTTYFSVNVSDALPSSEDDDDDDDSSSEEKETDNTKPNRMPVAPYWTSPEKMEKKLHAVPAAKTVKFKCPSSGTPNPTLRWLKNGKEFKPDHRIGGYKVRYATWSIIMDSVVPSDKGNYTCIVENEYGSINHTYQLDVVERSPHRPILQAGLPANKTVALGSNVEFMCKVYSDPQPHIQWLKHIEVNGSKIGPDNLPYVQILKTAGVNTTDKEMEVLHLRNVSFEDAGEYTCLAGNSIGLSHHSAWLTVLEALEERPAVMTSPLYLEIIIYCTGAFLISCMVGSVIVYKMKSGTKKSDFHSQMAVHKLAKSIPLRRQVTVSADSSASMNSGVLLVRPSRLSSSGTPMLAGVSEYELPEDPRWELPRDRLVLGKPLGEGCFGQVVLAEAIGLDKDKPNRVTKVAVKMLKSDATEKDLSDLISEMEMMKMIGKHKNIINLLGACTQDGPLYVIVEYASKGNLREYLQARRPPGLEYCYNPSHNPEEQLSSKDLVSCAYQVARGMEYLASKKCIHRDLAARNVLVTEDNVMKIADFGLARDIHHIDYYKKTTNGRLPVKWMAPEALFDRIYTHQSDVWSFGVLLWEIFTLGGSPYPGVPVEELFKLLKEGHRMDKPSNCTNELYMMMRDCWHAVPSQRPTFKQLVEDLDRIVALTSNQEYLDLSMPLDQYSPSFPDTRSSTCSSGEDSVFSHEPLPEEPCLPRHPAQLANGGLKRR
T2 sequence (Q9UQB9 whole entry): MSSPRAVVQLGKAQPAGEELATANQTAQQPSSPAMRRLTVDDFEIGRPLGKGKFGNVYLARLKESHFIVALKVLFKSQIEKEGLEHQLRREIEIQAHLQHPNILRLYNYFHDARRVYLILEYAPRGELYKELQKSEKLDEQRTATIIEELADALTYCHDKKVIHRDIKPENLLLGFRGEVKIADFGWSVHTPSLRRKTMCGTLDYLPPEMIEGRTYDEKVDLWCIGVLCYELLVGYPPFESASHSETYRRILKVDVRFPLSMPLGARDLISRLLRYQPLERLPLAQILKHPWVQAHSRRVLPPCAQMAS
T5 sequence (Q00535 whole entry): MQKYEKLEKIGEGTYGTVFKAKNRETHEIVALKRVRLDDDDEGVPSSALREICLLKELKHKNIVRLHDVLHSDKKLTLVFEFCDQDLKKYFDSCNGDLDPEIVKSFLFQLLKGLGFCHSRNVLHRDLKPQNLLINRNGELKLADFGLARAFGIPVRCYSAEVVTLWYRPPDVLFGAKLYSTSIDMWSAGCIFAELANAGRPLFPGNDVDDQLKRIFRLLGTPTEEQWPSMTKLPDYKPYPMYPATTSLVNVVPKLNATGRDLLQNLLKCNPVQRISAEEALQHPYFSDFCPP
T5 sequence (Q13319 whole entry partner): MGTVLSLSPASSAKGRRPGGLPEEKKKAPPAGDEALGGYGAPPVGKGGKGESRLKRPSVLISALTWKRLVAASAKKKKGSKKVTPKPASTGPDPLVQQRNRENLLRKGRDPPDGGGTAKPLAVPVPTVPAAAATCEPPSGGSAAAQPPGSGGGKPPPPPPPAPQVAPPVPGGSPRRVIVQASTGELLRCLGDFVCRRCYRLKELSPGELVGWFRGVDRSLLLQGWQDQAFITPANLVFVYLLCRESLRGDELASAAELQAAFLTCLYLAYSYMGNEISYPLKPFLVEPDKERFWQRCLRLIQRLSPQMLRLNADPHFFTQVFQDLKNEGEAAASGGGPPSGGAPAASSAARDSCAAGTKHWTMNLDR
T7 sequence (P19784 whole entry): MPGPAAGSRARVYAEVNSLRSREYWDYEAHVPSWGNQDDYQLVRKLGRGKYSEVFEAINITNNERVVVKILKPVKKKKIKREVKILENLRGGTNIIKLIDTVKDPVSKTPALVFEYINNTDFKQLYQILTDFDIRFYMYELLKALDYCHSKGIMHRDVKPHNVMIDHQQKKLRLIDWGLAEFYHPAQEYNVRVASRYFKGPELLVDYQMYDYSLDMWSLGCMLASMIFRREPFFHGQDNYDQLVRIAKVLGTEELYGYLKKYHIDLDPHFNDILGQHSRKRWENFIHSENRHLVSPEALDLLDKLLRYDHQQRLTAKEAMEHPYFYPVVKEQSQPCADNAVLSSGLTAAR

For `Cc1ncsc1-c1ccc([C@H](C)NC(=O)[C@@H]2C[C@@H](O)CN2C(=O)[C@@H](NC(=O)[C@H]2CC[C@H](C(=O)N3CCN(CCNC(=O)c4cc(Oc5ccc(NC(=O)Nc6cc(C(C)(C)C)on6)cc5)ccn4)CC3)CC2)C(C)(C)C)cc1` [MA191, 4-(4-(3-(5-(tert-Butyl)isoxazol-3-yl)ureido)phenoxy)-N-(2-(4-(trans-4-(((S)-1-((2S,4R)-4-hydroxy-2-(((S)-1-(4-(4-methylthiazol-5-yl)phenyl)ethyl)carbamoyl)pyrrolidin-1-yl)-3,3-dimethyl-1-oxobutan-2-yl)carbamoyl)cyclohexanecarbonyl)piperazin-1-yl)ethyl)picolinamide], the remaining activity at 1 µM was 109% at AURKB; 110% on AURKC; 102% at CAMK2A; 81.3% on CDK17-CCNY; 104% on CDK5-CDK5R2; 114% on CSNK2A2. Further, the remaining activity at 1 µM at DCLK3 was determined as 102%; at ERN2, 116%; on FGFR1, 103%; on MAP3K9, 108%; at MAP4K1 it was 105%; on MAPK6 it was 120%. Besides, the results for the remaining activity at 1 µM on MLTK and on MUSK were 54.8% and 66%, respectively. The Tracer bound at CSNK1G2 is given as 92.4%.
